Common to all, as to assay: NCI-60 cell line screen, 48 h
For assay [1], the system named is A498.
Assay [2] relates to HCT-15.
Assay [3] deals with DU-145.
In assay [4] the test system is 786-0.
Assay [5] has as its system NCI-H460.
Assay [6] deals with U-251.
The test system of assay [7] is SNB-78.
The subject of assay [8] is M14.
The test system of assay [9] is DLD-1.
Assay [10] relates to CCRF-CEM.
Assay [11] relates to HCT-116.
For assay [12], the system named is BT-549.
Assay [13] concerns HOP-18.
Assay [14] has as its system KM-20L2.
Assay [15] deals with LXFL 529.
In assay [16] the test system is Hs-578T.
For assay [17], the system named is SR.
The subject of assay [18] is NCI-H23.
Assay [19] relates to DMS-273.
Assay [20] concerns NCI-H226.

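Values below derive from 48-hour exposures of cells grown in 96-well plates, with endpoints linearly interpolated between the two concentrations bracketing the appropriate inhibition level. At the GI50, growth is halved.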 Activity calls are given as the source filed them. Rule as the data show it: active = GI50 up to about 1.1 µM and inactive = higher.

`COc1c2c(nc3ccccc13)-c1cc3c(c(=O)n1C2)COC(=O)C3(O)CC(=O)N1CCOCC1` (stereo not given): the GI50 in assay [1] was 13.2 µM (inactive); in assay [2] it was 41.4 µM; in assay [3], 3.3 µM (inactive); in assay [4] it was 2.07 µM (inactive); in assay [5], 1.17 µM (inactive); in assay [6] it was 528 nM (active). The GI50 was 32.4 µM (inactive) in [7]; 4.04 µM (inactive) in assay [8]; 40.4 µM (inactive) in assay [9]; 164 nM (active) in assay [10]; 6.55 µM (inactive) in [11]; 5.62 µM (inactive) in assay [12]. The GI50 is 18 µM (inactive) in assay [13]; 15.4 µM (inactive) in [14]; 13.9 µM (inactive) in [15]; 12.6 µM (inactive) in assay [16]; 230 nM (active) in [17]; 1.75 µM (inactive) in assay [18]. Further, the GI50 in assay [19] is 1.11 µM (active); in assay [20] it was 6 µM (inactive).

For the origin of these results see ChEMBL document CHEMBL1201862, “PubChem BioAssay data set” (2004).
